# Data as given in patent publication US6773891B2 (priority 1998, dated 2004).
# Read-outs that look alike come from different tables or passages of the source.
# Legend:
# mice = details: for Titer, 1 injection / Titer, 2 injections / Titer, 3 injections: s.c.; for Titer, 2 injections: one week after 2nd injection; for Titer, 3 injections: one week after 3rd injection
# Protocol: Animals were immunized using standard protocols. In mice, three subcutaneous injections of vaccine were administered, two weeks apart, with test bleeds performed one week following the first and second injection, and exsanguination occurring one week following the third injection. Serum samples were evaluated in an ELISA assay, described in Example 10. The ELISA assay utilized 3′ AMNic-pGlu bound to microtiter plates.
# Antibodies generated against 3′ AMNic vaccine were evaluated using a 3′ AMNic-pGlu ELISA as follows: Dynatech Immulon 4 microtiter plates (Chantilly, Va.) were coated 100 μL/well with 10 ng/mL 3′ AMNic-pGlu in 0.1 M bicarbonate buffer, pH 9.6 and allowed to incubate overnight (ON) at room temperature (RT). The plates were then aspirated and blocked with 1% BSA in PBS for one hour at RT. […] The plates were washed (9% NaCl, 0.1% BRIJ) five times and diluted samples and reference serum were loaded. The reference and samples were 2-fold diluted down the plates for a final volume of 100 μL/well and plates are incubated for 1 hour at 37° C. The plates were then washed again and loaded 100 μL/well with peroxidase-conjugated anti-species IgG, Fc specific (Jackson, West Grove, Pa.) diluted in PBB and incubated at 37° C. for one hour. The plates were washed and incubated 10 minutes at RT with 100 μl/well 3,3′,5,5′-tetramethylbenzidine (TMB) substrate (KPL, Gaithersburg, Md.) diluted 1:1 with H2O2 (supplied with TMB reagent kit). The reaction is stopped with the addition of 100 μL/well 1 M phosphoric acid and read at 450 nm on an MR4000 microtiter plate reader (Dynatech). Samples are quantified in relation to the reference using parallel line analysis.
# rabbits = details: i.m., dose 100 μg, arithmetic mean six to seven weeks after third injection
# Protocol: (§1) Antibodies generated against 3′ AMNic vaccine were evaluated using a 3′ AMNic-pGlu ELISA as follows: Dynatech Immulon 4 microtiter plates (Chantilly, Va.) were coated 100 μL/well with 10 ng/mL 3′ AMNic-pGlu in 0.1 M bicarbonate buffer, pH 9.6 and allowed to incubate overnight (ON) at room temperature (RT). The plates were then aspirated and blocked with 1% BSA in PBS for one hour at RT. […] The plates were washed ([…], 0.1% BRIJ) five times and diluted samples and reference serum were loaded. The reference and samples were 2-fold diluted down the plates for a final volume of 100 μL/well and plates are incubated for 1 hour at 37° C. The plates were then washed again and loaded 100 μL/well with peroxidase-conjugated anti-species IgG, Fc specific (Jackson, West Grove, Pa.) diluted in PBB and incubated at 37° C. for one hour. The plates were washed and incubated 10 minutes at RT with 100 μl/well 3,3′,5,5′-tetramethylbenzidine (TMB) substrate (KPL, Gaithersburg, Md.) diluted 1:1 with H2O2 (supplied with TMB reagent kit). The reaction is stopped with the addition of 100 μL/well 1 M phosphoric acid and read at 450 nm on an MR4000 microtiter plate reader (Dynatech). Samples are quantified in relation to the reference using parallel line analysis.
# rats [1] = details: for Titer, 1 injection / Titer, 2 injections / Titer, 3 injections: i.p.; for Titer, 1 injection: one week after 1st injection; for Titer, 2 injections: one week after 2nd injection; for Titer, 3 injections: one week after 3rd injection
# Protocol: Rats were immunized intraperitoneally with the vaccines three times. Injections were given two weeks apart with test bleeds performed one week following the first and second injection. The rats were then exsanguinated one week after the third injection. Freund's complete adjuvant was used for the first injection, and incomplete Freund's adjuvant for the subsequent injections. Serum samples were evaluated in an ELISA assay.
# as §1
# rats [2] = details: three i.p. injections of 25 μg vaccine, 3 and 10 min after 0.03 mg/kg nicotine infusion over 10 seconds
# Protocol: To evaluate the present immunotherapy, an animal model has been developed to simulate the rapid absorption of nicotine from two cigarettes in humans. […] In this model, rats were administered 0.03 mg/kg of nicotine by i.v. infusion over 10 sec., simulating the rapid absorption of nicotine from the lungs in human smokers. Blood samples were taken at 3 and 10 min after nicotine injection for measurement of plasma nicotine.
# [3] = 0.5 mg/mL in 1 mL glass vials
# Protocol: A stability study of the nicotine-carrier conjugate of example 4 was carried out. The study used the vaccine vialed in 1 mL glass vials at a concentration of 0.5 mg/mL and the stability of the vialed vaccine was tested at three different temperatures: −70° C., 2 to 8° C. and room temperature.
# The stability study consisted of monitoring and assaying the conjugate vaccine using the following:
# 1.) Visual observation to look for any particulates formed (turbidity, precipitation).
# 2.) Checking for any significant pH change.
# 3.) Size exclusion chromatography profile in combination with UV absorption at 260 and 280 nm to determine if the ratio of nicotine incorporation changed.
# 4.) Reversed phase chromatography to check for any carrier protein degradation.
# 5.) SDS PAGE with silver staining looking for any proteolytic cleavage of the conjugated protein.
# rats [4] = test: Locomotor effects of nicotine; type: in vivo; details: subcutaneous injection
# Excerpt: This experiment used was designed to determine whether passive immunization could prevent an immediate CNS mediated action of nicotine. The rat model used in this experiment was developed by Dr. David Malin and is described in Malin et al. Nicotine-specific IgG reduced distribution to brain and attenuates its behavioral and cardiovascular effects in rats, submitted to the Fifth Annual Meeting of the Society for Research on Nicotine and Tobacco, San Diego, Calif., Mar. 5-7, 1999; To establish a baseline, the effect of a subcutaneous injection of 0.8 mg/kg of nicotine tartrate on locomotor activity level of rats was measured. The 0.8 mg/kg dose of nicotine tartrate is the highest dose that could be used without inducing locomotor abnormalities.
# There was an increase in activity level after nicotine injection in rats that were not pre-treated with anti-[3′ AMNic-Suc-rEPA], and in rats that were pretreated with 50 mg of normal rabbit serum IgG. See FIG. 6A, right bar and FIG. 6B, left bar. This effect was suppressed by pretreating the animals with 50 mg of anti-[3′ AMNic-Suc-rEPA] immune IgG (FIG. 6B, right bar).
# [5] = cited from earlier work
compound,measurement,setting,value
3-aminomethyl-(−)-nicotine-polyglutamic acid-ADH-rEPA [3′AMNic-pGlu-ADH-rEPA],Booster response,mice,showed the ability to induce the booster response
same,"Titer, 1 injection","mice; dose 2 μg (dry weight of lyophilized conjugate), one week after 1st injection",2
same,"Titer, 2 injections",mice; dose 2 μg (dry weight),739
same,"Titer, 3 injections",mice; dose 2 μg (dry weight),"6,586"
same,"Titer, 1 injection","mice; dose 10 μg (dry weight), one week after 1st injection",2
same,"Titer, 2 injections",mice; dose 10 μg (dry weight),"2,490"
same,"Titer, 3 injections",mice; dose 10 μg (dry weight),"9,573"
same,"Titer, 1 injection","mice; dose 30 μg (dry weight), one week after 1st injection",11
same,"Titer, 2 injections",mice; dose 30 μg (dry weight),"2,822"
same,"Titer, 3 injections",mice; dose 30 μg (dry weight),"8,195"
same,Titer,rabbits,"147,000"
same,Booster response,rats [1],showed the ability to induce the booster response
same,"Titer, 1 injection",rats [1]; dose 100 μg (dry weight of lyophilized conjugate),0
same,"Titer, 2 injections",rats [1]; dose 100 μg (dry weight),"1,067"
same,"Titer, 3 injections",rats [1]; dose 100 μg (dry weight),"3,752"
3′aminomethyl-(−)-nicotine-succinyl-rEPA [3′AMNic-Suc-rEPA],Booster response,mice,showed the ability to induce the booster response
same,"Titer, 1 injection","mice; dose 1 μg (protein assay), arithmetic mean one week after 1st injection",0
same,"Titer, 2 injections",mice; dose 1 μg (protein assay),36
same,"Titer, 3 injections",mice; dose 1 μg (protein assay),"4,280"
same,"Titer, 1 injection","mice; dose 5 μg (protein assay), one week after 1st injection",1
same,"Titer, 2 injections",mice; dose 5 μg (protein assay),884
same,"Titer, 3 injections",mice; dose 5 μg (protein assay),"10,727"
same,"Titer, 1 injection","mice; dose 15 μg (protein assay), one week after 1st injection",3
same,"Titer, 2 injections",mice; dose 15 μg (protein assay),"2,476"
same,"Titer, 3 injections",mice; dose 15 μg (protein assay),"14,160"
same,Titer,rabbits,"132,000"
same,Nicotine in plasma versus non-immunized controls,rats [2],increased levels of nicotine in plasma
same,Stability of the conjugate,[3]; −70° C. and 2 to 8° C.,stability of the conjugate for six months
same,Stability of the conjugate,"[3]; −70° C., 2 to 80° C. and room temperature",stability of the conjugate for six months
same,Booster response,rats [1],showed the ability to induce the booster response
same,"Titer, 1 injection","rats [1]; Freund's adjuvant, dose 15 μg (protein assay)",18
same,"Titer, 2 injections",rats [1]; dose 15 μg (protein assay),"7,942"
same,"Titer, 3 injections",rats [1]; dose 15 μg (protein assay),"9,947"
same,"Titer, 1 injection",rats [1]; dose 25 μg (protein assay),4
same,"Titer, 2 injections",rats [1]; dose 25 μg (protein assay),"1,446"
same,"Titer, 3 injections",rats [1]; dose 25 μg (protein assay),"5,991"
same,"Titer, 1 injection",rats [1]; dose 50 μg (protein assay),353
same,"Titer, 2 injections",rats [1]; dose 50 μg (protein assay),"7,211"
same,"Titer, 3 injections",rats [1]; dose 50 μg (protein assay),"8,996"
CN1CCCC1c1cccnc1.O=C(O)C(O)C(O)C(=O)O (stereo not drawn) [nicotine tartrate],Highest dose without inducing locomotor abnormalities,rats [4],0.8 mg/kg
"CN1CCC[C@H]1c1cccnc1 [nicotine, (S)-(−)-nicotine]",Time to peak levels of nicotine in the blood,[5]; after smoking a cigarette,10 to 15 min
same,Arterial versus venous nicotine concentrations,"[5]; humans, smoking a cigarette",10 fold
